# Reference: patent US20120035144A1 (APEX LABORATORIES PRIVATE LIMITED, priority 2009, published 2012)
# Counter-ions that a name gives are not always drawn.
# Key:
# [1] = cited from earlier work
# [2] = Stability of raw API, stability indicating HPLC method; format: physicochemical; details: Sodium Fusidate compared with Fusidic acid, Tables 1 and 2
# Text: In both studies the * Initial denotes the results of the samples tested at the time of receipt of the API from the supplier.
stability as an API [2],SMILES,Protein binding [1]
,"Clc1ccccc1C(c1ccccc1)(c1ccccc1)n1ccnc1 [Clotrimazole, 1-(o-Chloro-α,α-diphenylbenzyl)imidazole]",about 90%
more stable than Fusidic acid,"CC(=O)O[C@H]1C[C@@]2(C)[C@@H](C[C@@H](O)[C@H]3[C@@]4(C)CC[C@@H](O)[C@@H](C)[C@@H]4CC[C@@]32C)/C1=C(\CCC=C(C)C)C(=O)O [Sodium Fusidate, 3μ,11μ,16β-Trihydroxy 29-nor-8μ,9β,13μ,14β-dammara-17(20)[10,21-cis], 24-dien-21-oic acid 16-acetate, sodium salt]",
